According to patent US12180146B2, “Antihypertensive polyol compound and derivative thereof” (TAO PHARMACEUTICAL (SUZHOU) CO., LTD, priority 2020, dated 2024):

Legend:
[1] = system: spontaneously hypertensive rats (SHR); assay: Antihypertensive activity test: blood pressure and heart rate of spontaneously hypertensive rats (SHR); assay type: in vivo, rat; settings: 200 mg/kg; for SHR blood pressure (SBP), time after administration 1 h / SHR blood pressure (SBP), time after administration 2 h / SHR blood pressure (SBP), time after administration 3 h / SHR blood pressure (SBP), time after administration 4 h / SHR blood pressure (SBP), time after administration 5 h / SHR blood pressure (SBP), time after administration 6 h: n = 8
Outline: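 Spontaneously hypertensive rats received compound at 200 mg/kg. SBP and heart rate were measured before and after dosing. A drop in SBP of ≥20 mmHg from baseline counted as effective, and heart-rate changes were tested by paired t-test (P<0.05).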

[2] = system: hypoxic pulmonary hypertension model rats; assay: Hypoxic pulmonary hypertension model rats, oral (gavage) treatment for 28 days; assay type: in vivo, SD rats; settings: hypoxic PAH rats, 200 mg/kg, po
Protocol: An animal model of pulmonary hypertension in SD rats was established in a hypoxic and low-pressure environment, and compound 1 was administered by gavage at the same time for treatment. The rat pulmonary artery hemodynamics and right heart hypertrophy index RVHI were measured to determine whether compound 1 has effects of improving hypoxic pulmonary hypertension.
(§1) SD rats (purchased from Shanghai Xipuer-Bikai Experimental Animal Co., Ltd.), male, weighing 180-200 g, were bred in an artificially controlled animal room with each 12 hours of light and darkness at a temperature of 20-25° C. and relative humidity of 50-60%, and allowed ad libitum to food and water. The rats were randomly divided into groups according to the experimental requirements, and kept separately in cages, with 3 to 4 rats per cage. All relevant operations of animal experiments are in compliance with the provisions of “Guidelines for the Management and Use of Laboratory Animals” of China.
The hypoxic PAH model was established by placing SD male rats in a fully-automatically regulated low-pressure hypoxic chamber (atmospheric pressure of about 50 kPa, oxygen concentration of 10%) for 8 hours a day for 28 days. The rats in the blank control group were kept in a normoxic environment.
The experimental rats of hypoxic PAH model were divided into 8 groups, namely blank control group, model group, Sidenafil (25 mg/kg) group, compound 1 (10 mg/kg) group, compound 1 (25 mg/kg) group, compound 1 (50 mg/kg) group, compound 1 (100 mg/kg) group, and compound 1 (200 mg/kg) group. The concentration in the parentheses of the group name represents the administration concentration of the compound or drug. In hypoxia-induced PAH experiments, Sidenafil is often used as a positive drug, which can reduce the pulmonary artery pressure in rats and reduce the right ventricular hypertrophy and vascular remodeling. In this experiment, 25 mg/kg of Sidenafil was used as the positive drug. Both the positive drugs Sidenafil and Compound 1 were dissolved in physiological saline and formulated into solutions of different concentrations according to different administration concentrations. The rats were continuously administered for 28 days with an administration volume of 5 ml/kg. Rats in the control and model groups were given the corresponding volume of physiological saline solution via gavage. The specific grouping can be found in Table 5.
After the administration was completed, the POWERLAB biological information acquisition and treatment system was started, and the right cardiac catheter filled with 0.2% heparin sodium (Beijing Solo Technology Co. Ltd.) in normal saline was connected to the pressure transducer and then zero-calibrationed for use. After 20% urethane (Shanghai Yuanye Biotechnology Co., Ltd.) solution was injected into the abdominal cavity of the rats for anesthesia, the right neck hair was shaved and the right jugular vein was isolated and exposed. […] After the typical right ventricular waveform appeared and stabilized for a while, the waveform was recorded, and then the pressure value was read by Powerlab biological information acquisition and processing system (ADInstruments).
After the pressure was measured, the catheter was taken out, and the rat was dissected immediately to take out the heart and lung tissues. The right ventricle (RV) and the left ventricle and interventricular septum (LV+S) were separated and weighed, and the right heart hypertrophy index RVHI=RV/(LV+S) was calculated. The lung lobe tissue from the right lower part of the lung was separated, soaked in 4% paraformaldehyde (Sigma) for about 1 week to prepare a paraffin section with a thickness of 3 μm, and then conducted to hematoxylin-eosin staining (Wuhan Guge Biotechnology Co., Ltd.). […]

[3] = system: monocrotaline-induced pulmonary hypertension model rats (MCT-PAH); assay: Monocrotaline-induced pulmonary hypertension model rats, oral (gavage) treatment for 21 days; assay type: in vivo, SD rats; settings: 100 mg/kg
Description: Monocrotaline (MCT) was subcutaneously injected to establish an animal model of pulmonary hypertension in SD rats. At the same time, compound 1 was given by gavage for treatment. The pulmonary artery hemodynamics and right heart hypertrophy index RVHI of the rates were detected to determine whether the oral administration of compound 1 has effects of improving Monocrotaline induces pulmonary hypertension.
as §1
During the experiment, SD rats were randomly divided into 4 groups: blank control group, pulmonary hypertension model group, Selexipag (1 mg/kg) treatment group and compound 1 (100 mg/kg) group with 6 rats in each group, and the concentration in brackets represents the administration concentration of the compound, in which Selexipag is a new oral long-acting prostacyclin receptor agonist discovered and synthesized by Japan New Drug Co., Ltd. On the first day of the experiment, normal saline was injected subcutaneously into the back of neck of rats in the blank control group, and monocrotaline (Chengdu Purifa Biotechnology Co., Ltd.) solution was injected in the rats in other groups at a dosage of 60 mg/kg. Both the positive drug, Selexipag and Compound 1 were administered by gavage. Selexipag and […] were dissolved in 0.5% CMC-Na solution. The rats were continuously administered for 21 days with a volume of […]. The rats in the control and model groups were given the corresponding volume of CMC-Na solution by gavage. Specific groupings can be found in Table 7.
After the administration, the pulmonary vascular hemodynamics and RVHI was determined according to the same experiment method as that in Example 1.

[4] = system: monocrotaline-induced pulmonary hypertension model rats (MCT-PAH); assay: Monocrotaline-induced pulmonary hypertension model rats, aerosol inhalation treatment; assay type: in vivo, SD rats; settings: 30 mg/kg, inh, 28 days
Protocol: A pulmonary hypertension animal model of SD rats was established by subcutaneous injection of monocrotaline (MCT). The compound 1 was administered by aerosol inhalation for treatment. The pulmonary artery hemodynamics and right heart hypertrophy index RVHI of rats were tested to determine whether compound 1 administered by aerosol inhalation has effects of improving monocrotaline-induced pulmonary hypertension.
as §1
In the second experiment, the rats were divided into 5 groups, namely the control group, model group, positive control Tyvaso (1.62 μg/kg) group, compound 1 (10 mg/kg) group and compound 1 (30 mg/kg) group. On the first day of the experiment, normal saline was injected subcutaneously into the back of the neck of the rats in the blank control group, and monocrotaline (Chengdu Purifa Biotechnology Co., Ltd.) solution was injected in the other groups at a dosage of 60 mg/kg. Compound 1 and Tyvaso were administered by aerosol inhalation, that is, the compound was firstly dissolved in physiological saline, and then the solution was prepared into an aerosol with a nebulizer to be inhaled into the mouth and nose of rats. The rats in the control group and the model group only inhaled an aerosol made of physiological saline. The rats were continuously administered for 28 days, and the concentration in the parentheses of the group name represents the administered concentration of the compound. Specific groupings can be found in Table 9. After the administration, the pulmonary vascular hemodynamics and RVHI were determined in the same way as the experiment method in Example 1.

SMILES | SBP Difference before and after administration, 1 h [1] [mmHg] | SHR blood pressure (SBP), time after administration 1 h [1] [mmHg] | SBP Difference before and after administration, 2 h [1] [mmHg] | SHR blood pressure (SBP), time after administration 2 h [1] [mmHg] | SBP Difference before and after administration, 3 h [1] [mmHg] | SHR blood pressure (SBP), time after administration 3 h [1] [mmHg] | SBP Difference before and after administration, 4 h [1] [mmHg] | SHR blood pressure (SBP), time after administration 4 h [1] [mmHg] | SBP Difference before and after administration, 5 h [1] [mmHg] | SHR blood pressure (SBP), time after administration 5 h [1] [mmHg] | SBP Difference before and after administration, 6 h [1] [mmHg] | SHR blood pressure (SBP), time after administration 6 h [1] [mmHg] | 2 × MT/ED [2] | RVHI [2] | RVSP [2] [mmHg] | mPAP [2] [mmHg] | 2 × MT/ED [3] | RVHI [3] | RVSP [3] [mmHg] | mPAP [3] [mmHg] | also measured
CCc1ccccc1C(O)CO (stereo not shown) [Compound 5] | 20 | 169 ± 6.32 | 15 | 174 ± 4.56 | 18 | 171 ± 9.34 | 16 | 173 ± 13.66 | 15 | 174 ± 15.9 | 11 | 178 ± 8.48 | 0.270 ± 0.012 | 0.271 ± 0.038 | 60.29 ± 3.87 | 15.76 ± 2.71 | 0.29 ± 0.054 | 0.35 ± 0.048 | 44.32 ± 2.12 | 15.76 ± 2.71 | 2 × MT/ED [4]: 0.390 ± 0.038; RVHI [4]: 0.324 ± 0.053; RVSP [4]: 40.18 ± 4.62 mmHg; mPAP [4]: 11.06 ± 2.95 mmHg
OCC(O)c1cccc(F)c1 (stereo not shown) [Compound 7] | 16 | 177 ± 9.56 | 21 | 172 ± 7.36 | 22 | 171 ± 4.07 | 20 | 173 ± 6.18 | 18 | 175 ± 5.63 | 13 | 180 ± 7.61 | 0.291 ± 0.023 | 0.261 ± 0.037 | 62.78 ± 3.41 | 16.64 ± 2.08 | 0.27 ± 0.045 | 0.33 ± 0.058 | 42.31 ± 2.78 | 15.67 ± 2.70 | 2 × MT/ED [4]: 0.375 ± 0.024; RVHI [4]: 0.267 ± 0.013; RVSP [4]: 44.61 ± 2.96 mmHg; mPAP [4]: 12.45 ± 2.41 mmHg
COc1cccc(C(O)CO)c1 (stereo not shown) [Compound 8] | 6 | 188 ± 12.4 | 13 | 181 ± 12.7 | 18 | 176 ± 11.1 | 18 | 176 ± 10.3 | 14 | 180 ± 11.3 | 8 | 186 ± 10.4 | 0.277 ± 0.022 | 0.296 ± 0.027 | 62.50 ± 2.91 | 17.19 ± 3.65 | 0.31 ± 0.052 | 0.33 ± 0.037 | 45.97 ± 3.49 | 16.47 ± 3.07 | SBP Difference before and after administration, 0 h ([1]; 0 h): 0 mmHg; 2 × MT/ED [4]: 0.353 ± 0.043; RVHI [4]: 0.306 ± 0.027; RVSP [4]: 45.92 ± 3.47 mmHg; mPAP [4]: 14.16 ± 3.84 mmHg
CCc1cccc(C(CO)OC2OC(CO)C(O)C(O)C2O)c1 (stereo not shown) [Compound 16] | 9 | 174 ± 10.6 | 11 | 172 ± 10.4 | 10 | 173 ± 9.90 | 15 | 168 ± 6.61 | 11 | 172 ± 7.25 | 9 | 174 ± 12.1 | 0.289 ± 0.030 | 0.365 ± 0.031 | 65.83 ± 3.26 | 18.60 ± 3.60 | 0.32 ± 0.066 | 0.320 ± 0.031 | 48.89 ± 6.64 | 16.74 ± 3.08 | 2 × MT/ED [4]: 0.357 ± 0.032; RVHI [4]: 0.290 ± 0.054; RVSP [4]: 41.44 ± 2.03 mmHg; mPAP [4]: 14.76 ± 1.98 mmHg
